Reference: US8008230B2, “Synergistic antifungal DDAC compositions” (priority 2004, dated 2011)
Like-named read-outs stand apart in the source and are kept apart here.

Columns and labels:
Penicillium digitatum = assay: Curative treatment by dipping of lemons artificially inoculated with Penicillium digitatum; type: in vivo; conditions: read-out: % Efficacy
Protocol: Aqueous test solutions were prepared with concentrations of 10 μg/ml, 100 μg/ml and 1000 μg/ml of DDAC (I); and 500 μg/ml of imazalil (II-a). These test solutions were used to prepare mixtures comprising component (I) and component (II-a) with a concentration respectively of 1000 μg/ml of (I) and 500 μg/ml of (II-a); 100 μg/ml of (I) and 500 μg/ml of (II-a) and 10 μg/ml of (I) and 500 μg/ml of (II-a).
Lemons were artificially inoculated with a 10 mm diameter cork borer dipped in a spore suspension containing 10^6 cfu/ml of Penicillium digitatum. The lemons were treated after 24 hours by submerging for 30 seconds in one of the test solutions.
Treated and untreated lemons were incubated for 14 days in a dark climate room at 20° C. After the incubation period, the diameter of fungal growth was measured and % efficacy (growth inhibition) versus control was calculated. Fungal growth was quantified by measuring the distance, in mm, between the perimeter of the 10 mm diameter inoculation ring and the perimeter of the damaged zone.
Synergy was considered to occur when the observed effect, or measured activity, of a combination of both components was greater than the corresponding Ec value.

Botrytis cinerea = assay: Poison plate assay (MIC and synergy index); type: cell-based, Botrytis cinerea strain BC03019; conditions: 168 h
Protocol: Activity against fungal growth was determined with the poison plate assay. A calculated amount of a stock solution (containing either DDAC, boscalid, fenhexamid, pyrimethanil, thiophanate-methyl, triflumizole, azoxystrobin, dimoxystrobin, picoxystrobin, or pyraclostrobin in a concentration of 500 ppm in dimethyl sulfoxide) was pipetted into 24-well plates in order to reach a final test concentration ranging from 0.21 to 5 ppm in 12 steps when mixed with a culture medium. These culture media were either Glucose Agar (GA) (10 g glucose, 1.5 g K2HPO4, 2 g KH2PO4, 1 g (NH4)2SO4, 0.5 g MgSO4 and 12.5 g agar in 1 liter deionised water) when pyrimethanil was used as the test substance or Potato Dextrose Agar (PDA) (4 g potato infusion, 20 g bacto dextrose and 15 g bacto agar in 1 liter deionised water) for any of the other test substances. The medium was inoculated with 2 μl of a spore/mycelium suspension. The 24-well plates were kept in the dark at a temperature of 22° C., and a relative humidity of 75% and evaluated for fungal growth after one week.
The following fungi species were used in the poison plate assay: Penicillium digitatum strain Sas (sensitive to demethylase inhibiting fungicides), Penicillium digitatum strain LDW930223 (reduced sensitivity to demethylase inhibiting fungicides), Penicillium italicum strain H17 (reduced sensitivity to demethylase inhibiting fungicides), Botrytis cinerea strain BC03019, Geotrichum candidum, or Gloeosporium album strain A18.
The lowest concentration in ppm of each test compound or mixture of test compounds sufficient to inhibit visible growth was taken as the minimum inhibitory concentration (MIC). When no fungal growth was observed, the abbreviation “ng” was used in Table 2. Synergy was calculated using the Synergy Index method described by von Kull et al. (F. C. Kull, P. C. Eismann, H. D. Sylvestrowicz, R. L. Mayer, 1961, Applied Microbiology 9: 538-541).
Synergistic Index (SI)=(x/m)+(y/n) • m and n are the MIC values of test substances 1 and 2 respectively, when applied alone • x and y are the respective quantities of test substances 1 and 2 in mixtures which also cause the complete inhibition of fungal growth, i.e. x and y equal [quantity of test substances 1 and 2, resp., in the mixture (e.g. 0.8 and 0.2, 066 and 0.33 . . . )] multiplied by [MIC-value of the mixture]. […] A result smaller than 1 indicates a synergistic effect of the combination.

[1] = % DDAC + % test substance 0 + 100 (test substance alone), Potato Dextrose Agar, one week, read-out: MIC (minimum inhibitory concentration in ppm total a.i.)

SMILES: CCCCCCCCCC[N+](C)(C)CCCCCCCCCC.[Cl-] [DDAC, didecyl dimethyl ammonium chloride]
- Emax at 10 µg/mL (Penicillium digitatum): 0%
- Emax at 100 µg/mL (Penicillium digitatum): 0%
- Emax at 1000 µg/mL (Penicillium digitatum): 22%
- MIC (Botrytis cinerea; read-out: MIC (minimum inhibitory concentration in ppm total a.i.), % DDAC + % test substance 100 + 0 (DDAC alone), Glucose Agar (pyrimethanil series), one week): 5 µg/mL
- MIC (Botrytis cinerea; read-out: MIC (minimum inhibitory concentration in ppm total a.i.), % DDAC + % test substance 100 + 0 (DDAC alone), Potato Dextrose Agar, one week): > 5 µg/mL

SMILES: C=CCOC(Cn1ccnc1)c1ccc(Cl)cc1Cl (stereo not drawn) [Imazalil (IIa)]
- Emax at 500 µg/mL (Penicillium digitatum; test concentration 500 μg/ml, lemon, dipped 24 h after inoculation, 14 days incubation): 78%

SMILES: O=C(Nc1ccccc1-c1ccc(Cl)cc1)c1cccnc1Cl [boscalid, 2-chloro-N-(4′-chlorobiphenyl-2-yl)-nicotinamide]
- MIC (Botrytis cinerea; [1]): > 5 µg/mL

SMILES: CC1(C(=O)Nc2ccc(O)c(Cl)c2Cl)CCCCC1 [fenhexamid, 2′,3′-dichloro-4′-hydroxy-1-methylcyclohexanecarboxanilide]
- MIC (Botrytis cinerea; [1]): 1.58 µg/mL

SMILES: COC(=O)N(OC)c1ccccc1COc1ccn(-c2ccc(Cl)cc2)n1 [pyraclostrobin, methyl N-(2-[1-(4-chlorophenyl)-1H-pyrazol-3-yloxymethyl]phenyl](N-methoxy)carbamate]
- MIC (Botrytis cinerea; [1]): > 5 µg/mL

SMILES: Cc1cc(C)nc(Nc2ccccc2)n1 [pyrimethanil, 4,6-dimethyl-N-phenyl-2-pyrimidinamine]
- MIC (Botrytis cinerea; % DDAC + % test substance 0 + 100 (test substance alone), Glucose Agar, one week, read-out: MIC (minimum inhibitory concentration in ppm total a.i.)): 2.11 µg/mL

SMILES: COC(=O)NC(=S)Nc1ccccc1NC(=S)NC(=O)OC [thioph. methyl, 4,4′-(o-phenylene)bis(3-thioallophanate)]
- MIC (Botrytis cinerea; [1]): 2.11 µg/mL

SMILES: CCCOC/C(=N\c1ccc(Cl)cc1C(F)(F)F)n1ccnc1 [triflumizole, (E)-4-chloro-α,α,α-trifluoro-N-(1-imidazol-1-yl-2-propoxyethylidene)-o-toluidine]
- MIC (Botrytis cinerea; read-out: MIC (minimum inhibitory concentration in ppm total a.i.), % DDAC + % test substance 0 + 100 (test substance alone), Potato Dextrose Agar, one week): > 5 µg/mL
